# Values quoted from earlier work in patent US8481490B2, “Method of reducing plasma amylase and/or plasma lipase in patients with pancreatitis” (Amylin Pharmaceuticals, LLC, priority 2010, dated 2013).
# Test system: diabetic transgenic HIP rats
# Details: one rat with histological features of acute pancreatitis
compound,measurement,value
N[C@@H](CC(=O)N1CCn2c(nnc2C(F)(F)F)C1)Cc1cc(F)c(F)cc1F [sitagliptin],ductal cell turnover and metaplasia,increased ductal cell turnover and metaplasia
